The text below walks through data of patent US10945951B2, “Apparatus for compound dispersion” (Biogen MA Inc., priority 2014, dated 2021).

Data set [1] is described as follows: PET imaging of distribution of lumbar intrathecally injected 64Cu-DOTA, bolus volume and respiratory vest force. Particulars: lumbar intrathecal. It is filed as in vivo, Cynomolgus monkeys. The procedure:
The ability of a time varying force applied to the torso of a patient and increased bolus volumes to enhance CNS exposure of intrathecally injected compounds was tested in cynomolgus monkeys. Specifically, live whole animal positron emission tomography (PET) imaging was used to monitor the distribution of intrathecally injected ^64Cu-DOTA given as a compound surrogate. This approach allowed the direct imaging of the impact of the convective force on compound spread in CSF and the exposure of the primate CNS to the compound. During the experiments, Cynomolgus monkeys were given a lumbar intrathecal injection of ^64Cu-DOTA in a volume of either 0.36 ml (about 3% of the total CSF volume) or 1.86 ml (about 15% of the total CSF volume), see FIG. 6. The 3% total CSF volume was chosen to mimic a typical lumbar intrathecal injection volume of about 5 ml that is used clinically. Following lumbar intrathecal injection, the animals were placed in a respiratory vest for 20 minutes. The vest was turned on for 20 minutes only for those animals in which the effect of the time varying force enhanced convection was tested. Animals wearing the vest without activating the time varying force feature served as controls. Animals were then imaged with PET scanning for a time window of 30-60 min post dosing.

Data set [2] in a line: SPECT imaging of two probes injected in a single bolus into lumbar cistern and cisterna magna. To be noted: single 20 ml bolus, lumbar cistern and cisterna magna injection. It is filed as in vivo, rat. The protocol: Two different probes including different isotopes were injected via a single […] bolus into rodents and then imaged at different energies. […] FIG. 8B depicts a structure of the second mitochondria targeting probe ^99mTc-Sestamibi. The bolus was injected into the lumbar cistern and the cisterna magna to help distinguish uptake into interstitial spaces versus uptake into intracellular compartments, see FIG. 8C. […] Consequently, it is apparent that the cell affinity of a compound for the structures and tissue within the CNS should be considered when determining the optimal parameters, such as injection site, bolus volume, and the applied forces, needed to ensure a compound reaches a desired target site.

The conditions of data set [3]: 20 μl bolus, intrathecal. The procedure: The same amount of each probe was used in each injected bolus. However, the total bolus volumes for the separate injections were 20 μl and 30 μl followed by a 40 μl saline flush. The boluses were injected intrathecally into rodents and the concentration of the two probes was monitored at the lumbar, thoracic, and cervical regions.

A short description of data set [4]: Live imaging of intrathecally injected Gd-DTPA in dog. It is filed as in vivo. The procedure: For this experiment, an adult male two-year-old beagle was intrathecally injected at the L4-L5 space and live imaging was performed under anesthesia for five hours.
FIGS. 15C-15G show the signal counts corresponding to the presence of Gd-DTPA over the five hour monitoring period. The various monitored locations included the hippocampus, spinal column, substantia nigra, cortex, and striatum.

Turning to `O=C([O-])CN1CCN(CC(=O)O)CCN(CC(=O)[O-])CCN(CC(=O)O)CC1.[64Cu+2]` [^64Cu-DOTA], the “CNS exposure / compound spread in CSF” value in data set [1] (3% CSF volume (0.36 ml), respiratory vest turned on 20 minutes, PET 30-60 min post dosing) is “the entire spinal cord, and brainstem displayed exposure”; in data set [1] (3% CSF volume (0.36 ml), vest not turned on, PET 30-60 min post dosing) it was “only reached the lower thoracic spinal cord”; in data set [1] (15% CSF volume (1.86 ml), combined with time varying forces of the vest), “greatest rostral spread”; in data set [1] (15% CSF volume (1.86 ml), vest not activated, PET 30-60 min post dosing), “exposure over the entire spinal cord and portions of the brainstem”.

Regarding `[C-]#[N+]CC(C)(C)OC.[C-]#[N+]CC(C)(C)OC.[C-]#[N+]CC(C)(C)OC.[C-]#[N+]CC(C)(C)OC.[C-]#[N+]CC(C)(C)OC.[C-]#[N+]CC(C)(C)OC.[Tc]` [^99mTc-Sestamibi], the “distribution along the CNS” value in data set [2] was “showed very little distribution along the CNS”. For the same compound, in data set [3], the “concentration in the lumbar region at injection” value is listed as “initially high concentration”; the “concentration over time in the thoracic and cervical regions” value is recorded as “did not increase”.

^111In-DTPA: the “distribution along the CNS” value in data set [2] is “showed distribution from the injection site towards the head of the rodent along the CNS”.

On to `O=C([O-])CN(CCN(CC(=O)[O-])CC(=O)O)CCN(CC(=O)[O-])CC(=O)O.[Gd+3]` [Gd-DTPA], for which the “signal intensity over time in hippocampus, spinal column, substantia nigra, cortex and striatum” value in data set [4] (intrathecal injection at L4-L5, five hour monitoring period) is reported as “increase in the measured signal intensity over time”. Moreover, the “location in the brain (cellular uptake vs interstitial spaces)” value in data set [4] (intrathecal injection at L4-L5, live imaging five hours) is given as “not taken up into the cells but instead was located in the interstitial spaces of the brain”.
